Results taken from patent US20080242870A1 (priority 2006, published 2008).
Values joined by “and” are separate entries in the source; they are usually repeats but may differ in a detail not shown here. Identical values can stand only once.

Assays:
[1] = Luminescence lifetime by TCSPC (Example 1); format: physicochemical; details: for 1τ: TCSPC 370 nm pulsed LED
Experimental: (§2) Luminescence lifetimes were measured with an IBH time-correlated single photon counting (TCSPC) system equipped with an IBH Model TBX-04 Photon Detection Module. The excitation source for the TCSPC measurements was a pulsed LED (IBH NanoLED, 455 nm, 1.3 ns pulse duration or 403 nm, <200 ps pulse duration) with a repetition rate of 1 MHz. All data was analyzed by iterative reconvolution of the decay profile (10,000 counts at the peak channel) with the instrument response function using software provided by the instrument manufacturer.

[2] = Absorption spectra of anthracene diimides in solvents of increasing polarity (Example 1); format: physicochemical
[3] = Sub-ambient (77 K) emission in 2-methyltetrahydrofuran; format: physicochemical; details: for emission bands: 2-methyltetrahydrofuran, 405 nm excitation
Experimental: FIGS. 7a and 7b show normalized emission spectra for the diphenyl anthracene diimides (top) and the tetraphenyl anthracene diimides (bottom) at 77° K in 2-methyltetrahydrofuran and 405 nm excitation.
In an attempt to better understand the excited state properties of the diphenyl and tetraphenyl anthracene diimides, sub-ambient (77 K) emission experiments were performed, with the results shown in FIGS. 7a and 7b. In the case of the diphenyl derivatives, DPO (35), DP (37), and DC (39) display similar emission spectra with overlapping bands near 434 nm, […], and 492 nm. Although the peak ratios differ slightly, the band shapes and positions are nearly identical. […] Similar results are observed for the tetraphenyl series. Here, TPO (40) and TP (41) display spectral features analogous to DPO (35), DP (37), and DC (39), but at lower energy.

[4] = Radiative quantum yield against standards (Example 1); format: physicochemical
Experimental: (§1) Unless otherwise stated, all experiments used optically dilute solutions (Optical Density (OD)<0.2) at room temperature. […] Emission spectra were obtained with an Aminco-Bowman luminescence spectrometer (Series 2). The excitation was accomplished with a 150 W Xe lamp optically coupled to a monochrometer (+2 nm). The emission was collected at […] and passed through a second monochrometer (±2 nm). Luminescence was measured with a photomultiplier tube (PMT).

[5] = Stokes shift / Lippert-Mataga solvatochromic analysis; format: physicochemical
Description: The solvatochromic response of the anthracene diimides to photoexcitation was further characterized by analysis of the Stokes' shift and Lippert-Mataga polarity parameter,
where v is the Stokes' shift in wavenumbers, h is Plank's constant, c is the speed of light, ∈0 is the permittivity of free space, Δμ is the change in the dipole moment upon excitation, α^3 is the molecule's volume, as is the solvent dielectric constant, and n is the solvent refractive index. This relationship quantifies the change in dipole between the ground state and excited state of a molecule and, when used with the calculated ground state dipole, the magnitude of the excited state dipole moment may be estimated. Each line represents a solvatochromic emission component of the corresponding diimide. All other bands were not solvatochromic and not included in the analysis. For example, the emission spectra of DPO (35) in the selection of solvents were nearly identical and could not be used in the Lippert-Mataga correlations. DP (37) had two components in the emission profiles; a higher energy band that quickly disappeared with increasing solvent polarity and a lower energy component that red-shifted with increasing solvent polarity.

[6] = Emission spectra of anthracene diimides at room temperature (Example 1); format: physicochemical; details: for Em. λmax: (p) peak, (s) shoulder
Experimental: as §1

[7] = depending on the solvent
Experimental: as §2

[8] = in toluene
[9] = in toluene; remark: listed apart in the source

Molecule	1τ ([1]; C2H4Cl2 (10.7)) [ns]	1τ ([1]; Toluene (2.4)) [ns]	Abs. λmax ([2]; Acetone (20.1)) [nm]	Abs. λmax ([2]; C2H4Cl2 (10.7)) [nm]	Abs. λmax ([2]; CHCl3 (4.8)) [nm]	Abs. λmax ([2]; Ethyl Acetate (6.02)) [nm]	Abs. λmax ([2]; THF (7.6)) [nm]	Abs. λmax ([2]; Toluene (2.4)) [nm]	Φr ([4]; Acetone (20.1))	Φr ([4]; C2H4Cl2 (10.7))	Φr ([4]; CHCl3 (4.8))	Φr ([4]; Ethyl Acetate (6.02))	Φr ([4]; THF (7.6))	Φr ([4]; Toluene (2.4))	Em. λmax ([6]; Acetone (20.1))	Em. λmax ([6]; C2H4Cl2 (10.7))	Em. λmax ([6]; CHCl3 (4.8))	Em. λmax ([6]; Ethyl Acetate (6.02))	Em. λmax ([6]; THF (7.6))	Em. λmax ([6]; Toluene (2.4))	further results
CCCCCCOc1ccc(-n2c(=O)c3cc4cc5c(-c6ccc(C#N)cc6)c6c(=O)n(-c7ccc(OCCCCCC)cc7)c(=O)c6cc5cc4c(-c4ccc(C#N)cc4)c3c2=O)cc1 [DC]	0.21	0.39	423	425	425	418	420	417	0.0062	0.017	0.025	0.012	0.013	0.046	599(p) nm	571(p) nm	555(p) nm and 504(s) nm	573(p) nm	579(p) nm	505(s) nm and 543(p) nm	1τ ([1]; ACN (38.8)): <0.20 ns; 1τ ([1]; Acetone (20.1)): <0.20 ns; 1τ ([1]; CHCl3 (4.8)): 0.27 ns; 1τ ([1]; Ethyl Acetate (6.02)): <0.20 ns; 1τ ([1]; THF (7.6)): <0.20 ns; Abs. λmax ([2]; ACN (38.8)): 423 nm; emission bands ([3]; listed as DC (39)): ~434 nm and ~461 nm and ~492 nm; Φr ([4]; ACN (38.8)): 0.0051; calculated dipole change (Δμ) ([5]; Lippert-Mataga correlation): 31.1 D; Stokes' shift of charge transfer excited state ([5]; from toluene to acetonitrile): 95 nm; Em. λmax ([6]; ACN (38.8)): 600(p) nm
CCCCCCOc1ccc(-n2c(=O)c3cc4cc5c(-c6ccc(OC)cc6)c6c(=O)n(-c7ccc(OCCCCCC)cc7)c(=O)c6cc5cc4c(-c4ccc(OC)cc4)c3c2=O)cc1 [DM]	0.34	1.25	426	430	431	425	426	428	0.011	0.030	0.064	0.028	0.021	0.18	463(p) nm and 492(p) nm and 554(p) nm	463(p) nm and 490(s) nm and 526(p) nm	491(s) nm and 465(p) nm	463(p) nm and 488(p) nm and 526(p) nm	463(p) nm and 494(p) nm and 538(p) nm	462(p) nm and 488(s) nm	1τ ([1]; CHCl3 (4.8)): 0.59 ns; Abs. λmax ([2]; ACN (38.8)): 427 nm; red shift of emission spectrum ([3]; relative to the other members of the series): 13 nm; Φr ([4]; ACN (38.8)): 0.0087; Em. λmax ([6]; ACN (38.8)): 463(p) nm and 487(s) nm and 551(p) nm
CCCCCCCCn1c(=O)c2cc3cc4c(-c5ccccc5)c5c(=O)n(CCCCCCCC)c(=O)c5cc4cc3c(-c3ccccc3)c2c1=O [DPO]	5.60	6.36	421	424	426	420	421	422	0.37	0.46	0.36	0.34	0.37	0.35	435(p) nm	436(p) nm	437(p) nm	433(p) nm	435(p) nm	437(p) nm	1τ ([1]; ACN (38.8)): 8.03 ns; 1τ ([1]; Acetone (20.1)): 7.29 ns; 1τ ([1]; CHCl3 (4.8)): 5.79 ns; 1τ ([1]; Ethyl Acetate (6.02)): 6.90 ns; 1τ ([1]; THF (7.6)): 6.71 ns; Abs. λmax ([2]; ACN (38.8)): 423 nm; emission bands ([3]; listed as DPO (35)): ~434 nm and ~461 nm and ~492 nm; Φr ([4]; ACN (38.8)): 0.46; Em. λmax ([6]; ACN (38.8)): 435(p) nm
CCCCCCOc1ccc(-n2c(=O)c3cc4cc5c(-c6ccccc6)c6c(=O)n(-c7ccc(OCCCCCC)cc7)c(=O)c6cc5cc4c(-c4ccccc4)c3c2=O)cc1 [DP]	<0.20	0.62	423	426	428	421	422	422	0.0082	0.020	0.028	0.015	0.017	0.066	500(s) nm and 584(p) nm	502(s) nm and 557(p) nm	536(p) nm and 501(p) nm	500(s) nm and 555(p) nm	502(s) nm and 562(p) nm	497(p) nm and 525(p) nm	1τ ([1]; Acetone (20.1)): <0.20 ns; 1τ ([1]; CHCl3 (4.8)): 0.38 ns; 1τ ([1]; Ethyl Acetate (6.02)): <0.20 ns; 1τ ([1]; THF (7.6)): <0.20 ns; lifetime ([1]; in ethyl acetate and solvents of higher polarity): below 200 ps; lifetime ([1]; in toluene): 620 ps; emission bands ([3]; listed as DP (37)): ~434 nm and ~461 nm and ~492 nm; Φr ([4]; Toluene (2.4), listed as DP (37)): 0.18; slope of Lippert plot ([5]; second (lower energy) emission component, R^2=0.99): 6,600.2 cm^−1
CCCCCCCCn1c(=O)c2c(-c3ccccc3)c3cc4c(-c5ccccc5)c5c(=O)n(CCCCCCCC)c(=O)c5c(-c5ccccc5)c4cc3c(-c3ccccc3)c2c1=O [TPO]	3.19	2.77	427	430	432	426	427	428	0.21	0.23	0.26	0.21	0.20	0.19	443(p) nm and 466(p) nm	445(p) nm and 470(p) nm	447(p) nm and 471(p) nm	442(p) nm and 465(p) nm	445(p) nm and 467(p) nm	447(p) nm and 468(p) nm	1τ ([1]; ACN (38.8)): 3.84 ns; 1τ ([1]; Acetone (20.1)): 3.34 ns; 1τ ([1]; CHCl3 (4.8)): 3.54 ns; 1τ ([1]; Ethyl Acetate (6.02)): 3.12 ns; 1τ ([1]; THF (7.6)): 3.03 ns; Abs. λmax ([2]; ACN (38.8)): 428 nm; Φr ([4]; ACN (38.8)): 0.24; Em. λmax ([6]; ACN (38.8)): 443(p) nm and 468(p) nm; emission band position ([6]; room temperature, all solvents): ~428 nm
CCCCCCOc1ccc(-n2c(=O)c3c(-c4ccccc4)c4cc5c(-c6ccccc6)c6c(=O)n(-c7ccc(OCCCCCC)cc7)c(=O)c6c(-c6ccccc6)c5cc4c(-c4ccccc4)c3c2=O)cc1 [TP]		1.03	429	435	435	428	429	431	0.011	0.029	0.08	0.023	0.027	0.21	454(p) nm and 576(p) nm	450(p) nm and 478(p) nm and 497(p) nm and 549(p) nm	450(p) nm and 482(p) nm and 564(p) nm	448(s) nm and 499(s) nm and 549(p) nm	459(s) nm and 499(s) nm and 552(p) nm	482(p) nm and 520(s) nm	Abs. λmax ([2]; ACN (38.8)): 431 nm; Φr ([4]; ACN (38.8)): 0.0080; Em. λmax ([6]; ACN (38.8)): 456(p) nm and 474(s) nm and 585(p) nm; Em. λmax ([6]; Toluene (2.4), listed as TP (41)): ~431 nm
N,N′-Bis(m-(boronic acid)phenyl)-1,5-bis(phenyl)anthracene-2,3,6,7-tetracarboxyl diimide																					lifetime (single exponential) [7]: 5-5.5 ns
N,N′-Bis(methyl 18-crown-6)-1,5-bis(phenyl)anthracene-2,3,6,7-tetracarboxyl diimide																					quantum yield, Φ [8]: 0.37; extinction coefficient, ∈ [9]: 12,500 M^−1 cm^−1; lifetime (single exponential) [7]: 5.5-6.5 ns
